Measurements: a compilation of properties of binary mixtures (doi:10.1016/j.molliq.2015.11.008)

Assay: xn = mol fraction of the nth substance listed
Conditions: 298.15 K, 101 kPa

CC(=O)[O-].CC[NH2+]CC + O
Conditions	electrical conductivity [S/m]	viscosity [mPa·s]
x1 = 0.0079	1.4	–
x1 = 0.0285	2.35	–
x1 = 0.0365	2.46	–
x1 = 0.0444	2.49	–
x1 = 0.0602	2.47	–
x1 = 0.0777	2.33	–
x1 = 0.098	–	5.81
x1 = 0.298	–	26.8
x1 = 0.2995	0.965	–
x1 = 0.3994	0.669	–
x1 = 0.403	–	40.7
x1 = 0.4992	0.525	–
x1 = 0.501	–	48.1
x1 = 0.597	–	53.1
x1 = 0.599	0.407	–
x1 = 0.662	–	54.6
x1 = 0.794	0.308	–
x1 = 0.805	–	55.7
x1 = 0.8986	0.282	–
x2 = 0.0048	0.262	–
